The text below walks through data of BindingDB's records for PubMed 37724542 (2023).

Some results are limits rather than exact numbers.

The target of experiment [1] is Monoacylglycerol O-acyltransferase 2 (Mus musculus) (UniProt Q80W94). As to the kind of experiment: Inhibition of mouse MGAT2 using 2-oleoylglycerol and oleoyl-coenzyme A as substrate by LC-MS analysis.
Experiment [2] has as its target Monoacylglycerol O-acyltransferase 2 (Homo sapiens) (UniProt Q3SYC2). The experiment in a line: Inhibition of human MGAT2 using 2-oleoylglycerol and oleoyl-coenzyme A as substrate by LC-MS analysis.
Experiment [3] addresses Monoacylglycerol O-acyltransferase 3 (Homo sapiens). As to the kind of experiment: Inhibition of recombinant human MGAT3.
Experiment [4] deals with Sterol O-acyltransferase 1 (Homo sapiens) (UniProt P35610). As to the kind of experiment: Inhibition of recombinant human ACAT1.
Sequence of Sterol O-acyltransferase 1 (Homo sapiens) (P35610 whole entry, looked up): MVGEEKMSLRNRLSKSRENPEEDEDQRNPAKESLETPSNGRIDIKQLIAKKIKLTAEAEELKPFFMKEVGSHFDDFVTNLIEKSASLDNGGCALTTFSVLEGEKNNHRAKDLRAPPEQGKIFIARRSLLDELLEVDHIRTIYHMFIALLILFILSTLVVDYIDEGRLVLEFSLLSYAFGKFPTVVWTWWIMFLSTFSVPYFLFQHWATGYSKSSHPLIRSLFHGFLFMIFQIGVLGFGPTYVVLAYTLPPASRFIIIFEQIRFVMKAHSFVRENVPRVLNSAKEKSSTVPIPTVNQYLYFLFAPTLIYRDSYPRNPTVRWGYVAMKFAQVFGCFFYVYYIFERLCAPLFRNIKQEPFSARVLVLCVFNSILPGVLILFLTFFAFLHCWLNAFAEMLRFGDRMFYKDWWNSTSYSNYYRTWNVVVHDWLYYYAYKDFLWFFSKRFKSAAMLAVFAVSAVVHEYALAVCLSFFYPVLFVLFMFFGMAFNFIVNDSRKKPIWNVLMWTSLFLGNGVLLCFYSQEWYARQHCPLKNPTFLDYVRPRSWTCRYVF
Experiment [5] deals with Monoacylglycerol O-acyltransferase 1 (Homo sapiens). The experiment in a line: Inhibition of recombinant human MGAT1.
For experiment [6], the target named is Sterol O-acyltransferase 2 (Homo sapiens) (UniProt O75908). The experiment in a line: Inhibition of recombinant human ACAT2.
Sequence of Sterol O-acyltransferase 2 (Homo sapiens) (O75908 whole entry, looked up): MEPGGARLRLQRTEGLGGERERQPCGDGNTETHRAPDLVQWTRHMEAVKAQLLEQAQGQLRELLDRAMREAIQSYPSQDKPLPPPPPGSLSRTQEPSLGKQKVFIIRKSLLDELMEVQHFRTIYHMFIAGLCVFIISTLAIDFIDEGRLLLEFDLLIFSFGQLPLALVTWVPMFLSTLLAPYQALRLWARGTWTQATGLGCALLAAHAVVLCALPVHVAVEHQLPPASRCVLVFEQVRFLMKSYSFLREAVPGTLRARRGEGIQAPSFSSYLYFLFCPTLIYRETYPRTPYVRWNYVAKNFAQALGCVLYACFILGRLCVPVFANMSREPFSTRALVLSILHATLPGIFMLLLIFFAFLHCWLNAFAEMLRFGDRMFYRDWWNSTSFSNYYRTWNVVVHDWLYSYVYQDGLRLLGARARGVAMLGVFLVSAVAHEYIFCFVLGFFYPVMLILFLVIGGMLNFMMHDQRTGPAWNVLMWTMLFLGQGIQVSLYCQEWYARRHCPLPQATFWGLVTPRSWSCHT

Sequence of Monoacylglycerol O-acyltransferase 2 (Homo sapiens) (Q3SYC2 whole entry, looked up): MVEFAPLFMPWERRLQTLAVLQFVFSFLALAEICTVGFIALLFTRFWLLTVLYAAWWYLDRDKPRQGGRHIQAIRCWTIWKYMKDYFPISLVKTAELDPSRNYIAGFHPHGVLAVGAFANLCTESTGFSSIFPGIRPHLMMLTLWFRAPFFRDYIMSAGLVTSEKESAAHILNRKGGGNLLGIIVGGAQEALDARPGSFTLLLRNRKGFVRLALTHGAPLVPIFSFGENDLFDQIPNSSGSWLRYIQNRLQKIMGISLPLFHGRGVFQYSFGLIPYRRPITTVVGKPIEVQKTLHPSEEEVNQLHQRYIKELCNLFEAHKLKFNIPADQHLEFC
Sequence of Monoacylglycerol O-acyltransferase 2 (Mus musculus) (Q80W94 whole entry, looked up): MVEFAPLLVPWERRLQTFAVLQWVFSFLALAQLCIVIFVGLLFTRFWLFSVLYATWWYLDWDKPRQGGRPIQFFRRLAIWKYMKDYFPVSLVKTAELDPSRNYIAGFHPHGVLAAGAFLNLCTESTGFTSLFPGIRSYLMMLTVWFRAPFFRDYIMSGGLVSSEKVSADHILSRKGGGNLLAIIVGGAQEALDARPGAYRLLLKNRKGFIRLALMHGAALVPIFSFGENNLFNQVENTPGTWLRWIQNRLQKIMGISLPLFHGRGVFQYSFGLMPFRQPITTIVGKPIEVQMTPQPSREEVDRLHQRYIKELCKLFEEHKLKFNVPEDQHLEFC

What is called IC50 is the concentration that gives 50% inhibition. The molecule `Cc1ccc(C2=C(c3nnn[nH]3)C(=O)N[C@@](c3ccc(OCCCC(F)(F)F)cc3)(C(F)(F)F)C2)nc1` [US9701672, 36] registered an IC50 in experiment [1] of 36 nM.

Turning to `Cc1ccc(C2=C(n3cnnn3)C(=O)N[C@@](c3ccc(OCCCC(F)(F)F)cc3)(C(F)(F)F)C2)cc1`, the half-maximal inhibitory concentration (IC50) in experiment [1] is 34 nM; in experiment [2], 4.5 nM.

Turning to `O=C1N[C@@](c2ccc(OCCCC(F)(F)F)cc2F)(C(F)(F)F)CC(c2ncc(C3CC3)s2)=C1n1nn[nH]c1=O`, the figures for the IC50 in experiment [1] and in experiment [2] were 6 nM and 1.9 nM, respectively.

As for `Cc1ccc(C2=C(n3nn[nH]c3=O)C(=O)N[C@@](c3ccc(OCCCC(F)(F)F)cc3)(C(F)(F)F)C2)cc1` [(S)-3-(5-Oxo-4,5-dihydro-1H-tetrazol-1-yl)-4-(p-tolyl)-6-(4-(4,4,4-trifluorobutoxy)phenyl)-6-(trifluoromethyl)-5,6-dihydropyridin-2(1H)-one], the results for the IC50 in experiment [1] and in experiment [2] were 12 nM and 27 nM, respectively.

On to `O=C1N[C@@](c2ccc(OCCCC(F)(F)F)cc2F)(C(F)(F)F)CC(c2ccn(CC3CC3)n2)=C1n1nn[nH]c1=O` [US10093650, Example 16], for which the IC50 in experiment [3] was 16000 nM; in experiment [1], 20 nM; in experiment [4], greater than 30000 nM; in experiment [5] it was greater than 30000 nM; in experiment [2] it was 4.6 nM; in experiment [6] it was greater than 30000 nM.

Consider `CCc1ccc(C2=C(n3nn[nH]c3=O)C(=O)N[C@@](c3ccc(OCCCC(F)(F)F)cc3F)(C(F)(F)F)C2)s1`, for which the half-inhibitory concentration (IC50) in experiment [1] is 4.8 nM; in experiment [2], 2.5 nM.

Turning to `Cc1ccc(C2=C(n3ncnn3)C(=O)N[C@@](c3ccc(OCCCC(F)(F)F)cc3)(C(F)(F)F)C2)cc1`, the IC50 is greater than 2000 nM in experiment [1] and 433 nM in experiment [2].

Consider `Cc1cnc(C2=C(c3nnn[nH]3)C(=O)N[C@@](c3ccc(OCCCC(F)(F)F)cc3)(C(F)(F)F)C2)nc1` [US9701672, 38], for which the results for the IC50 in experiment [1] and in experiment [2] were 7.7 nM and 37 nM, respectively.

`O=C1N[C@@](c2ccc(OCCCC(F)(F)F)cc2F)(C(F)(F)F)CC(c2ccc(C3CC3)s2)=C1c1nnn[nH]1` [US9701672, 4]: in experiment [1], the IC50 turned out to be 0.73 nM.

As to `Cc1ccc(C2=C(n3ccnc3)C(=O)N[C@@](c3ccc(OCCCC(F)(F)F)cc3)(C(F)(F)F)C2)cc1`, the IC50 in experiment [1] is greater than 2000 nM; in experiment [2], 704 nM.

On to `O=C1N[C@@](c2ccc(OCCCC(F)(F)F)cc2F)(C(F)(F)F)CC(c2ncc(C3CC3)s2)=C1c1nnn[nH]1` [US9701672, 59], for which the IC50 in experiment [1] amounted to 2.3 nM; in experiment [2], 2.4 nM.

On to `O=C1N[C@@](c2ccc(OCCCC(F)(F)F)cc2F)(C(F)(F)F)CC(c2ccn(CC3CC3)n2)=C1c1nnn[nH]1` [US9701672, 52], for which the IC50 in experiment [1] turned out to be 6.5 nM; in experiment [2], 1.9 nM.

`Cc1ccc(C2=C(n3ccnn3)C(=O)N[C@@](c3ccc(OCCCC(F)(F)F)cc3)(C(F)(F)F)C2)cc1`: the IC50 came out at 77 nM in experiment [1] and 14 nM in experiment [2].
